Data taken from patent publication US20190297889A1, “USE OF A DIFLUORO-(2-HYDROXYPROPYL)PYRIDINE COMPOUND AS A FUNGICIDE FOR CONTROL OF PHYTOPATHOGENIC FUNGI OF RICE” (Dow AgroSsciences LLC, priority 2016, published 2019).
Like-named read-outs stand apart in the source and are kept apart here.

Columns and labels:
Cochliobolus miyabeanus = experiment: Field assessment of Cochliobolus miyabeanus (COCHMI, brown spot) in rice; conditions: for Percent Control (AUDPC), Panicle: panicles; for Percent Control (AUDPC), Plot: whole plot foliage
Description: The applications were made as early curative treatments, with the first application coming at the vegetative stage (50 to 70 DAP; max tillering to booting). The treatments were part of an experimental trial designed as a randomized complete block with four replications and a plot of approximately 5×2 m.
Disease assessments were made every seven days until three weeks after the second application. Disease severity was recorded as a percentage of visual diseased foliage on whole plot and as a percentage of visual infection on the rice panicles. Area under the disease progress curve (AUDPC) was calculated for each plot using the sets of recorded severity data. Relative AUDPC (% control based on AUDPC) was calculated as percent of the nontreated control. Also included in the study is the effect on efficacy of the addition of two adjuvants at varied rates: Agnique BP-420 (50% w/w) at rates from 0.05% to 0.3%; and Agnique BP-420 (50% w/w) plus MSO (methylated seed oil) at rates from 0.25% to 0.75%.

[1] = test system: Gaeumannomyces graminis var. graminis; experiment: Field assessment of Gaeumannomyces graminis var. graminis (GAEUGR) in rice; assay type: in vivo
Excerpt: The applications were made as preventative treatments, with no infection at the time of application. The first symptoms of […] were observed after three applications.

Rhizoctonia solani = experiment: Field assessment of Rhizoctonia solani (RHIZSO, sheath blight) in rice; assay type: in vivo; conditions: 2 sprays
Description: The experimental plots were inoculated with Rhizoctonia solani_2 days after the first application at growth stage BBCH 59 of rice.
Disease infection percentage was calculated as (lesion lengths)/(total sheath lengths)×100% on 6 plants per plot randomly. Sheath blight infection was assessed three times, 7 days after application A (DAAA) plus 7 and 14 DAAB. The disease infection was recorded following EPPO PP1/26 guideline prescriptions.

Pyricularia oryzae = assay type: in vivo; conditions: 2 sprays, rice field
[2] = 125 g ai/ha, commercial standard
[3] = 100 g ai/ha, Adjuvant A (Agnique BP-420) 0.2% v/v
[4] = 150 g ai/ha, Adjuvant A (Agnique BP-420) 0.3% v/v

Compound: CCCC1COC(Cn2cncn2)(c2ccc(Cl)cc2Cl)O1 (stereo not drawn) [Propiconazole, reference compound]
- Percent Control (AUDPC), Panicle (Cochliobolus miyabeanus; [2]): B (51-75)
- Percent Control (AUDPC), Plot (Cochliobolus miyabeanus; [2]): B (51-75)

Compound: N#Cc1ccc(Oc2ccc(C(F)(F)C(O)(Cn3ncnc3S)c3ccc(F)cc3F)nc2)cc1 (stereo not drawn) [Compound I, 4-((6-(2-(2,4-difluorophenyl)-1,1-difluoro-2-hydroxy-3-(5-mercapto-1H-1,2,4-triazol-1-yl)propyl)pyridin-3-yl)oxy)benzonitrile]
- % Control (AUDPC of visual infection on the plant) ([1]; 100 g ai/ha, Adjuvant A (Agnique BP-420) 0.1% v/v): B (51-75)
- % Control (AUDPC of visual infection on the plant) [1, 3]: B (51-75)
- % Control (AUDPC of visual infection on the plant) ([1]; 100 g ai/ha, Adjuvant A (Agnique BP-420) 0.3% v/v): B (51-75)
- % Control (AUDPC of visual infection on the plant) ([1]; 100 g ai/ha, Adjuvant B (Agnique BP-420 + MSO) 0.5% v/v): B (51-75)
- % Control (AUDPC of visual infection on the plant) ([1]; 100 g ai/ha, Adjuvant B (Agnique BP-420 + MSO) 1.0% v/v): B (51-75)
- % Control (AUDPC of visual infection on the plant) ([1]; 100 g ai/ha, Adjuvant B (Agnique BP-420 + MSO) 1.5% v/v): B (51-75)
- % Control (AUDPC of visual infection on the plant) ([1]; 100 g ai/ha, adjuvant None): C (26-50)
- % Control (AUDPC of visual infection on the plant) [1, 4]: B (51-75)
- % Control (AUDPC of visual infection on the plant) ([1]; 200 g ai/ha, Adjuvant A (Agnique BP-420) 0.4% v/v): A (76-100)
- Disease (% Control) RHIZSO, based on AUDPC (Rhizoctonia solani; 50 g ai/ha): D (1-25)
- Disease (% Control) RHIZSO, based on AUDPC (Rhizoctonia solani; 100 g ai/ha): C (26-50)
- Disease (% Control) RHIZSO, based on AUDPC (Rhizoctonia solani; 150 g ai/ha): C (26-50)
- Disease (% Control) RHIZSO, based on AUDPC (Rhizoctonia solani; 200 g ai/ha): B (51-75)
- % Control (AUDPC of visual infection on the plant) (Cochliobolus miyabeanus; 50 g ai/ha, Adjuvant A (Agnique BP-420) 0.05% v/v): B (51-75)
- % Control (AUDPC of visual infection on the plant) (Cochliobolus miyabeanus; 50 g ai/ha, Adjuvant A (Agnique BP-420) 0.1% v/v): B (51-75)
- % Control (AUDPC of visual infection on the plant) (Cochliobolus miyabeanus; 50 g ai/ha, Adjuvant A (Agnique BP-420) 0.15% v/v): B (51-75)
- % Control (AUDPC of visual infection on the plant) (Cochliobolus miyabeanus; 50 g ai/ha, Adjuvant B (Agnique BP-420 + MSO) 0.25% v/v): B (51-75)
- % Control (AUDPC of visual infection on the plant) (Cochliobolus miyabeanus; 50 g ai/ha, Adjuvant B (Agnique BP-420 + MSO) 0.5% v/v): B (51-75)
- % Control (AUDPC of visual infection on the plant) (Cochliobolus miyabeanus; 50 g ai/ha, Adjuvant B (Agnique BP-420 + MSO) 0.75% v/v): B (51-75)
- Percent Control (AUDPC), Panicle (Cochliobolus miyabeanus; 50 g ai/ha, […]): C (26-50)
- Percent Control (AUDPC), Plot (Cochliobolus miyabeanus; 50 g ai/ha, […]): C (26-50)
- % Control (AUDPC of visual infection on the plant) (Cochliobolus miyabeanus; 50 g ai/ha, adjuvant None): C (26-50)
- Percent Control (AUDPC), Panicle (Cochliobolus miyabeanus; 75 g ai/ha, […]): C (26-50)
- Percent Control (AUDPC), Plot (Cochliobolus miyabeanus; 75 g ai/ha, […]): C (26-50)
- % Control (AUDPC of visual infection on the plant) (Cochliobolus miyabeanus; [3]): B (51-75)
- Percent Control (AUDPC), Panicle (Cochliobolus miyabeanus; 100 g ai/ha, […]): C (26-50)
- Percent Control (AUDPC), Plot (Cochliobolus miyabeanus; 100 g ai/ha, […]): C (26-50)
- Percent Control (AUDPC), Panicle (Cochliobolus miyabeanus; 125 g ai/ha, […]): B (51-75)
- Percent Control (AUDPC), Plot (Cochliobolus miyabeanus; 125 g ai/ha, […]): C (26-50)
- % Control (AUDPC of visual infection on the plant) (Cochliobolus miyabeanus; [4]): A (76-100)
- Percent Control (AUDPC), Panicle (Cochliobolus miyabeanus; 150 g ai/ha, […]): B (51-75)
- Percent Control (AUDPC), Plot (Cochliobolus miyabeanus; 150 g ai/ha, […]): B (51-75)
- Disease (% Control) PYRIOR, based on AUDPC (Pyricularia oryzae; 50 g ai/ha): C (26-50)
- Disease (% Control) PYRIOR, based on AUDPC (Pyricularia oryzae; 100 g ai/ha): B (51-75)
- Disease (% Control) PYRIOR, based on AUDPC (Pyricularia oryzae; 150 g ai/ha): A (76-100)
- Disease (% Control) PYRIOR, based on AUDPC (Pyricularia oryzae; 200 g ai/ha): A (76-100)

Compound: N#CC(CCc1ccc(Cl)cc1)(Cn1cncn1)c1ccccc1 (stereo not drawn) [Fenbuconazole, reference compound]
- % Control (AUDPC of visual infection on the plant) ([1]; 144 g ai/ha, adjuvant Inex-A 0.15% v/v): B (51-75)
